From US10906880B2, “Kind of isothiazole oxime ether-containing strobilurin derivatives and its preparation methods and application” (priority 2016, dated 2021)
Read-outs that look alike come from different tables or passages of the source.

Tests used:
Cercospora arachidicola = experiment: Fungicide activity, mycelial growth inhibition on PDA plate; type: cell-based; settings: Mycosphaerella arachidis, read-out: Fungicidal activity inhibition, CA
Pellicularia sasakii = experiment: as above; type: cell-based; settings: 50 μg/mL, P. sasakii; read-out: Fungicidal activity inhibition, PS
Sclerotinia sclerotiorum = experiment: as above; type: cell-based; settings: Sclerotinia sclerotiorum, read-out: Fungicidal activity inhibition, SS
Physalospora piricola = experiment: as above; type: cell-based; settings: 50 μg/mL, P. piricola; read-out: Fungicidal activity inhibition, PP
TMV [1] = experiment: Anti-TMV activity on tobacco, curative mode; type: in vivo, tobacco mosaic virus; settings: Tobacco mosaic virus, 100 μg/mL, tobacco; read-out: Anti-TMV activity inhibition, Curative effect
TMV [2] = experiment: Anti-TMV activity on tobacco, inactivation mode; type: in vivo, tobacco mosaic virus; settings: Tobacco mosaic virus, 100 μg/mL, read-out: Anti-TMV activity inhibition, Inactivation effect
[3] = test system: Phytophthora infestans (Mont) de Bary; experiment: microbe, parasite or virus in culture; type: cell-based; settings: Phytophthora infestans, read-out: Fungicidal activity inhibition, PI, 50 μg/mL, P. infestans (Mont.) de Bary
TMV [4] = experiment: Anti-TMV activity on tobacco, protection mode; type: in vivo, tobacco mosaic virus; settings: Tobacco mosaic virus, 100 μg/mL, read-out: Anti-TMV activity inhibition, Protection effect
Rhizoctonia cerealis = experiment: Fungicide activity, mycelial growth inhibition on PDA plate; type: cell-based; settings: Ceratobasidium cereale, read-out: Fungicidal activity inhibition, RC
Gibberella zeae = experiment: microbe, parasite or virus in culture; type: cell-based; settings: Fusarium graminearum, read-out: Fungicidal activity inhibition, GZ, 50 μg/mL, G. zeae
TMV [5] = experiment: Anti-TMV activity on tobacco, induction mode (systemic acquired resistance); type: in vivo, tobacco mosaic virus; settings: Tobacco mosaic virus, 100 μg/mL, read-out: Anti-TMV activity inhibition, Induction effect
Botrytis cinerea = experiment: Fungicide activity, mycelial growth inhibition on PDA plate; type: cell-based; settings: Botrytis cinerea, read-out: Fungicidal activity inhibition, BC
Alternaria solani = experiment: as above; type: cell-based; settings: Alternaria solani, read-out: Fungicidal activity inhibition, AS

SMILES | inhibition at 50 µg/mL (Cercospora arachidicola; 50 μg/mL, C. arachidicola) [%] | inhibition at 50 µg/mL (Pellicularia sasakii) [%] | inhibition at 50 µg/mL (Sclerotinia sclerotiorum; 50 μg/mL, S. sclerotiorum) [%] | inhibition at 50 µg/mL (Physalospora piricola) [%] | melting point [°C] | inhibition at 100 µg/mL (TMV [1]) [%] | inhibition at 100 µg/mL (TMV [2]) [%] | inhibition at 50 µg/mL [3] [%] | inhibition at 100 µg/mL (TMV [4]) [%] | inhibition at 50 µg/mL (Rhizoctonia cerealis; 50 μg/mL, R. cerealis) [%] | inhibition at 50 µg/mL (Rhizoctonia cerealis) [%] | inhibition at 50 µg/mL (Gibberella zeae) [%] | inhibition at 100 µg/mL (TMV [5]) [%] | inhibition at 50 µg/mL (Botrytis cinerea; 50 μg/mL, B. cinerea) [%] | inhibition at 50 µg/mL (Alternaria solani; 50 μg/mL, A. solani) [%] | inhibition at 50 µg/mL (Sclerotinia sclerotiorum) [%] | inhibition at 50 µg/mL (Cercospora arachidicola) [%] | inhibition at 50 µg/mL (Botrytis cinerea) [%] | inhibition at 50 µg/mL (Alternaria solani) [%]
CO/N=C(/C(=O)NCC(F)F)c1ccccc1CO/N=C(\N)c1snc(Cl)c1Cl [CL04-24] | 16.7 | 24.2 | 52.9 | 39.5 | 118 to 120 | 15 ± 3.08 | 27.3 ± 6.56 | 22.9 | 36.8 ± 5.5 | 62 | > 50 | > 30 | > 30 | 37.5 | 12.7 |  |  |  | 
CO/N=C(/C(=O)NC(C)(C)CSC)c1ccccc1CO/N=C(\N)c1snc(Cl)c1Cl [CL04-25D] | 12.5 | 15.2 | 52.9 | 27.7 | 28 to 30 | > 30 | 0 | 17.1 | 21.1 ± 1.69 | 62 |  | 21.2 | 21.1 ± 3.69 | 39.3 | 16.4 | > 40 |  |  | 
CO/N=C(/C(=O)N[C@@H](C)CSC)c1ccccc1CO/N=C(\N)c1snc(Cl)c1Cl [CL04-25E] | 16.7 | 21.2 | 52.9 | 10.9 |  | 19.1 ± 6.56 | 0 | 11.4 | 26 ± 4.71 | 54 | > 50 | > 30 | 16 ± 7.71 | 35.7 | 9.09 | > 40 |  |  | 
CO/N=C(/C(=O)NCC(F)F)c1ccccc1CO/N=C(C)/C=C/c1snc(Cl)c1Cl [CL04-32A] | 36 | 35.1 | 53.3 | 29.8 | 98 to 100 | 1.52 ± 0.62 | > 30 |  | > 40 | 85.4 | > 50 | > 30 | > 30 | 52.6 | 34.4 | > 40 | > 30 | > 45 | > 30
CO/N=C(/C(=O)NC(C)(C)CSC)c1ccccc1CO/N=C(C)/C=C/c1snc(Cl)c1Cl [CL04-32E] | 12.5 | 15.2 | 41.2 | 39.5 |  | 1.52 ± 0.62 | 13.7 ± 0.55 | 11.4 | > 40 | 58 |  | 24.2 | > 70 | 32.1 | 5.45 |  |  |  | 
